The LD50 is the dose at which mortality reaches 50%. Read a low LD50 as greater toxicity.

Structures are written as SMILES.

The first data set can be described thus: in vivo. Conditions: mouse, ip.
For `O=C(COc1ccc(Cl)cc1)N1CC(c2ccc(Cl)cc2)CC1=O` (stereo not drawn) [compound 5], the LD50 was greater than 2000 mg/kg.

In the case of `CCCC(CCC)C(=O)N1CC(c2ccc(Cl)cc2)CC1=O` (stereo not drawn) [compound 2], the 50% lethal dose (LD50) is greater than 2000 mg/kg.

As for `CCOC(=O)C1C(=O)N(C(=O)c2ccc(OC)cc2)CC1c1ccccc1` (stereo not drawn) [compound 6], the median lethal dose (LD50) is greater than 2000 mg/kg. Compound `COc1ccc(C(=O)N2CC(c3ccccc3)CC2=O)cc1` (stereo not drawn) [compound 3] came in with an LD50 greater than 2000 mg/kg. `NC(=O)CN1CCCC1=O` [Piracetam] showed an LD50 greater than 2000 mg/kg. For the compound `COc1ccc(C(=O)N2CC(c3ccc(Cl)cc3)CC2=O)cc1` (stereo not drawn) [compound 4], the 50% lethal dose (LD50) was greater than 2000 mg/kg. `CCCC(CCC)C(=O)O` [Ca-Valproate] yielded an LD50 of 455 mg/kg. `CCCC(CCC)C(=O)N1CC(c2ccccc2)CC1=O` (stereo not drawn) [compound 1] had an LD50 of 1630 mg/kg.

Experiment in a further data set: not given
The conditions noted are these: from prior patents / known; cited from earlier work.
As to `NC(=O)N1c2ccccc2C=Cc2ccccc21` [carbamazepine], the “CNS effect reported in prior publications” value (from here on “CNS effect reported”) is reported as “nootropic effects”. `CCCC(CCC)C(=O)O` [dipropylacetic acid]: the “CNS effect reported” value is “nootropic effects”.

With `CCCC(CCC)C(=O)N1CCCC1=O` [N-dipropylacetylpyrrolidin-2-one], the “CNS effect reported” value is “nootropic effects”.

Take `O=C1CC(c2ccc(Cl)cc2)CN1` (stereo not drawn) [4-(4-chlorophenyl)-pyrrolidin-2-one]: the “CNS effect reported” value is “anticonvulsive effect”.

The record behind these values is patent US5441973A, “N-acyl-4-phenyl-pyrrolidin-2-ones and method for preparing” (Arzneimittelwerk Dresden G.m.b.H., priority 1990, dated 1995).
